Measurements from patent publication US20040086904A1, “Screening assay for cotranslational translocation interfering compounds” (priority 2001, published 2004).

Key:
VCAM-1 = biological target: T1, VCAM-1 (Homo sapiens, UniProt P19320)
T1 sequence (P19320 25-739): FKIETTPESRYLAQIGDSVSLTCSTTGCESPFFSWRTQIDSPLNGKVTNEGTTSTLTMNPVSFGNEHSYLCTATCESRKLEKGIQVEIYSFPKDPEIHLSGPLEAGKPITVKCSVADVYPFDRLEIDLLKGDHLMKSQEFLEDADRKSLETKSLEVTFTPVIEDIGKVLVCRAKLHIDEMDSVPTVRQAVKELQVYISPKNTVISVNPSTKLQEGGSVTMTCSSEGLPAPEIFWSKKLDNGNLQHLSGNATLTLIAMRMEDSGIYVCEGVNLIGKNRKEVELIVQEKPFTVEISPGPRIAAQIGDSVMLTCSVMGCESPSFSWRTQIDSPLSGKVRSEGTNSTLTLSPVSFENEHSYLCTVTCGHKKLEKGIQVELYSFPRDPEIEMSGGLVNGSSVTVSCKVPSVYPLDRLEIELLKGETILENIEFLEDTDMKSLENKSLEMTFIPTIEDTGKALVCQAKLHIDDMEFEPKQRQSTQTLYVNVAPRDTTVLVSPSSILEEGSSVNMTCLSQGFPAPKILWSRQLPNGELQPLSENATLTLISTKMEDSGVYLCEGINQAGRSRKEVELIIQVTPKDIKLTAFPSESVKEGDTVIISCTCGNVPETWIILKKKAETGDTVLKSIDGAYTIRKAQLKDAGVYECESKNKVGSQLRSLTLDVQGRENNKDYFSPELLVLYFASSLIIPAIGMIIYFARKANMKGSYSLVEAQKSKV
Experimental: Cell-free translations are carried out in the coupled TNT reticulocyte lysate system (Promega) using bacteriophage T7 polymerase according to the suppliers recommendations in a final volume of 25 μl and in the presence of [^35S]-methionine (Redivue, 10 mCi/ml, Amersham). To study cotranslational translocation across the ER membrane dog pancreatic microsomes (Promega) are present during translation reactions at concentrations between 1 to 2.5 μl per 25 μl reaction mixture. After translation/translocation, 2.5 μl of the reaction mixture are denatured in SDS loading buffer (12.5 mM Tris-HCl, pH 6.8, 80 μM EDTA, 26 mM DTT, 1% SDS, 100 g/ml bromphenol blue, 0.01% NaN3) for 5 minutes at 95° and subjected to SDS-PAGE (4-20% gradient or 15% Excel gels, Pharmacia). Gels are analyzed by autoradiography and quantitated using an Instant Phosphoimager (Packard). […]
To investigate the possibility that the candidate compound is interfering at this early stage of protein expression the effect of the drug on the process of cotranslational translocation in a cell-free assay system is analysed. […]

SEAP = assay: SP-SEAP assay, secretion of SEAP into the medium; format: cell-based, human; settings: transiently transfected cells, increasing concentrations
Experimental: Cell Culture and Transient Transfections HEK293 cells are maintained in Dulbeccos' modified Eagle's medium (DMEM, Gibco-BRL), supplemented with 10% heat-inactivated fetal calf serum (FCS, Bio-Whittaker) and 100 Units/ml each of penicillin (BC) and streptomycin (Gibco-BRL) at 37° in a 5% humidified CO2 incubator. HUVEC cells are cultured in endothelial cell basal medium (EBM, Clonetics Corp.) supplemented with 10% FCS, 5×10^−4 M dibutyryl cAMP (Sigma), 1 μg/ml hydrocortisone (Sigma) and 10 ng/ml human EGF (Boehringer) at 37° in a 5% humidified CO2 incubator. VCAM-1 production is stimulated by incubation with 100U/ml TNF-α for ca. 8 hours. For transient transfection, HEK293 cells are seeded into 6-well or 24-well cell culture dishes at a density of 6×10^5 cells/well or 1.5×10^5 cells/well, respectively, the day prior to transfection and grown to 50-70% confluency. […]
Human placental SEAP levels in cell supernatants are determined using either a fluorescence-based assay or an assay that measures light absorbance at 405 nm accompanying hydrolysis of pNPP according to the method described (Berger et al., 1988). […] 20 μl of 120 mM pNPP in 1x SEAP buffer prewarmed to 37° is added and the change in absorbance at 37° is plotted. […] For determination of SEAP levels by a fluorescence-based assay the Atto Phos AP Fluorescent Substrate Sysem (Promega) is used according to the manufacturer's instructions. […]

[1] = biological target: T2, E-Selectin mutant molecule with SP from VCAM-1 (Homo sapiens, UniProt P16581); assay: Chimeric fusion construct sensitivity (cell-free translation/translocation and transfected HEK293 cells); format: cell-based; settings: cell-free translation/translocation assay and transiently transfected HEK293 cells
T2 construct: VCAM-1 signal peptide (SP; VCAM1, P19320), replacing E-Selectin's own SP (N); expressed in transfected cells; host or cells: HEK293 (transient); also translated cell-free in reticulocyte lysate with microsomes
Experimental: (§1) The E-Selectin and ICAM-1 expression vectors pCDM8-E-selectin and pCDM8-ICAM-1 allowing transient expression in mammalian cells and cell-free translation are obtained from R&D Systems. VCAM-1 cDNA is obtained by reverse transcription of total RNA from TNF-α stimulated primary human umbilical vein endothelial cells (HUVEC) as follows. After extraction of total RNA with Trizol (GibcoBRL) according to the suppliers recommendations, reverse transcription (RT) PCR on approximately 3 μg total HUVEC RNA is performed using the Advantage High Fidelity PCR kit (CLONTECH) under standard conditions with N- and C-terminal VCAM-1-specific sense and antisense oligonucleotide primers, respectively. Primers are tailed, introducing a Kpnl restriction site 5′ of the Kozak sequence and a Xhol site 3′ of the stop codon. Placental SEAP is amplified accordingly by PCR using plasmid pBC 12/PLAP489 (Berger et al., 1988) as a template and similar tailed SEAP-specific sense and antisense oligonuclotide primers. The SEAP and VCAM-1 cDNAs are isolated and cloned into the pCR2.1 vector (TA cloning kit, Invitrogen). All sequences are confirmed by sequencing and subsequently subcloned into the mammalian expression vector pcDNA3.1 (+) (Invitrogen) as Kpnl Xhol fragments for transient expression under control of the constitutive immediate-early CMV promoter and for cell-free translation from the bacteriophage T7 promoter. To generate SP-gene fusion constructs the recombinant PCR-ligation-PCR mutagenesis method is used (Ali and Steinkasserer, 1995). Briefly, in a primary PCR reaction the two fusion gene fragments are independently amplified using appropriate specific primers for the SPs (PCR product A) and the mature sequences (PCR product B), respectively. Approximately equal molar quantities of each PCR product A and B are phosphorylated and ligated. Finally, out of the possible ligation combinations, the desired fusion gene construct is specifically amplified from an aliquot of the ligation reaction by a secondary PCR using the 5′ sense primer of the SP and the 3′ antisense primer of the mature sequence. […]

[2] = biological target: T3, VCAM-1 mutant molecule containing the SP from E-Selectin (Homo sapiens, UniProt P19320); assay: as above; format: cell-based; settings: cell-free translation/translocation assay and transiently transfected HEK293 cells
T3 construct: E-Selectin signal peptide (SP; SELE, P16581), replacing VCAM-1's own SP (N); expressed in transfected cells; host or cells: HEK293 (transient); also translated cell-free in reticulocyte lysate with microsomes
Experimental: as §1

VCAMSP15+4/E-Sel = assay: as above; format: cell-based; settings: 15 aa of the SP plus 4 aa of the adjacent mature domain of VCAM-1
Experimental: as §1

E-Selectin = biological target: T4, E-Selectin (Homo sapiens, UniProt P16581); assay: Transient expression of E-Selectin in HEK293 cells, Western blot / immunoblot; format: cell-based; settings: transiently transfected HEK293 cells, 48 hours post-transfection, increasing concentrations
T4 construct: Full length cDNAs of the adhesion molecules VCAM-1, ICAM-1 and E-Selectin are transcribed and translated; host or cells: cell-free: coupled TNT reticulocyte lysate (Promega) with dog pancreatic microsomes
T4 sequence (P16581 22-610): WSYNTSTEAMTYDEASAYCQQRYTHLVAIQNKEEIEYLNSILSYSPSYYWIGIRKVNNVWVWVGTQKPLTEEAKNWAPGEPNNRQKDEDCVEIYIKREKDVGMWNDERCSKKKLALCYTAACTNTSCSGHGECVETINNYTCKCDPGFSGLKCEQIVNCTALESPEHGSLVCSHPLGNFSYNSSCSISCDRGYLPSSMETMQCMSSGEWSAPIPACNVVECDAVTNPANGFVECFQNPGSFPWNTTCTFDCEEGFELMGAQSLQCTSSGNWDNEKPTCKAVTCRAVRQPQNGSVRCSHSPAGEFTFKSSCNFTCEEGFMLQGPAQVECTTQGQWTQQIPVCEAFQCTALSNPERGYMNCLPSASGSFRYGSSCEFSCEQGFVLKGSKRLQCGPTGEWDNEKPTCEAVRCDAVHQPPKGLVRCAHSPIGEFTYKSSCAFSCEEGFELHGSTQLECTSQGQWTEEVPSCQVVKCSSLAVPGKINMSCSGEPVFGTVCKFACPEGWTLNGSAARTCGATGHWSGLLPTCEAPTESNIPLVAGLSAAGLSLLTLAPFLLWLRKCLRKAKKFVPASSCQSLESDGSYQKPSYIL
Experimental: The E-Selectin and ICAM-1 expression vectors pCDM8-E-selectin and pCDM8-ICAM-1 allowing transient expression in mammalian cells and cell-free translation are obtained from R&D Systems. VCAM-1 cDNA is obtained by reverse transcription of total RNA from TNF-α stimulated primary human umbilical vein endothelial cells (HUVEC) as follows. After extraction of total RNA with Trizol (GibcoBRL) according to the suppliers recommendations, reverse transcription (RT) PCR on approximately 3 μg total HUVEC RNA is performed using the Advantage High Fidelity PCR kit (CLONTECH) under standard conditions with N- and C-terminal VCAM-1-specific sense and antisense oligonucleotide primers, respectively. Primers are tailed, introducing a Kpnl restriction site 5′ of the Kozak sequence and a Xhol site 3′ of the stop codon. Placental SEAP is amplified accordingly by PCR using plasmid pBC 12/PLAP489 (Berger et al., 1988) as a template and similar tailed SEAP-specific sense and antisense oligonuclotide primers. The SEAP and VCAM-1 cDNAs are isolated and cloned into the pCR2.1 vector (TA cloning kit, Invitrogen). […] Approximately equal molar quantities of each PCR product A and B are phosphorylated and ligated. […]
Protein expression in cells is analyzed by Western blot and subsequent immunoblot analysis. […]

[3] = system: IL-12p40 SP-SEAP fusion construct; assay: SP-SEAP assay, secretion of SEAP into the medium; format: cell-based; settings: transient overexpression in mammalian cells, increasing concentrations
Experimental: (§2) Cell Culture and Transient Transfections HEK293 cells are maintained in Dulbeccos' modified Eagle's medium (DMEM, Gibco-BRL), supplemented with 10% heat-inactivated fetal calf serum (FCS, Bio-Whittaker) and 100 Units/ml each of penicillin (BC) and streptomycin (Gibco-BRL) at 37° in a 5% humidified CO2 incubator. HUVEC cells are cultured in endothelial cell basal medium (EBM, Clonetics Corp.) supplemented with 10% FCS, 5×10^−4 M dibutyryl cAMP (Sigma), 1 μg/ml hydrocortisone (Sigma) and 10 ng/ml human EGF (Boehringer) at 37° in a 5% humidified CO2 incubator. VCAM-1 production is stimulated by incubation with 100U/ml TNF-α for ca. 8 hours. For transient transfection, HEK293 cells are seeded into 6-well or 24-well cell culture dishes at a density of 6×10^5 cells/well or 1.5×10^5 cells/well, respectively, the day prior to transfection and grown to 50-70% confluency. Cells are transfected with 2 μg or 1 μg of plasmid DNA, respectively, using the SuperFect reagent (Qiagen) according to the supplier's recommendations. Cells are incubated either without or with addition of a candidate compound, respectively, at concentrations indicated for ca. 24 to 48 hours. For proteasome inhibition experiments Lactacystin (Calbiochem) is added at a final concentration of 5 μM alone or together with a candidate compound 5 hours post-transfection, respectively.
(§3) Human placental SEAP levels in cell supernatants are determined using either a fluorescence-based assay or an assay that measures light absorbance at 405 nm accompanying hydrolysis of pNPP according to the method described (Berger et al., 1988). Briefly, a 500 μl aliquot of medium is removed from the culture dish, clarified for 1 min at 14,000×g and heated for 5 minutes at 65°. An aliquot of medium (10 μl-100 μl) is adjusted to 1x SEAP buffer (1.0 M diethanolamine, pH 9.8, 0.5 mM MgCl2, 10 mM L-homoarginine) in a final volume of 200 μl in a 96-well flat bottom culture dish (Nunc) and prewarmed to 37° for 10 min. 20 μl of 120 mM pNPP in 1x SEAP buffer prewarmed to 37° is added and the change in absorbance at 37° is plotted. Heating step and inclusion of L-homoarginine in the assay buffer inhibit any endogenous phophatase activity. For determination of SEAP levels by a fluorescence-based assay the Atto Phos AP Fluorescent Substrate Sysem (Promega) is used according to the manufacturer's instructions.
(§4) To further validate the novel assay system claimed in the present invention we generated SP-SEAP fusion constructs similarily to the method as described in example 1, but using the SP of other protein targets playing critical roles in various disease processes and tested their functionality by transient overexpression in mammalian cells in the absence or presence of increasing concentrations of compound CP as described (FIG. 7). […]

[4] = system: MCP-1 SP-SEAP fusion construct; assay: SP-SEAP assay, secretion of SEAP into the medium; format: cell-based; settings: transient overexpression in mammalian cells, increasing concentrations
Experimental: as §2, §3, §4

## CCCCC(C)CC1NC(=O)C(Cc2cn(OC)c3ccccc23)N(C)C(=O)C(CC(C)C)NC(=O)C(CC(C)C)N(C)C(=O)C(CC(C)CCCC)NC(=O)C(CCC(=O)OCCC)OC(=O)C(C)N(C)C1=O (centres unmarked) [CP]
VCAM-1
  core-glycosylated and protease-protected form of VCAM-1 (translocation across microsomal membranes): inhibited by increasing concentrations
SEAP
  sensitivity of SEAP secretion to the compound: compound-insensitive
[1]
  sensitivity of the chimeric construct to the compound: partially sensitive
[2]
  sensitivity of the chimeric construct to the compound: resistant
VCAMSP15+4/E-Sel
  sensitivity of the chimeric construct to the compound: full sensitivity
E-Selectin
  synthesis of E-Selectin: not-affected
[3]
  sensitivity of SEAP secretion to the compound: insensitive
[4]
  sensitivity of SEAP secretion to the compound: insensitive
